These results are taken from ChEMBL document CHEMBL5120881, “Silencing Tautomerization to Isolate Unstable Physalins from Physalis minima” (J Nat Prod, 2022).

pIC50: −log10 of the molar value.

In data set [1] the test system is A549. Briefly: Antiproliferative activity against human A549 cells assessed as reduction in cell viability incubated for 48 hrs by CCK8 assay. Type of data set: functional, cell-based. Conditions: A549, 48 h.
For data set [2], the system named is HepG2. Briefly: Antiproliferative activity against human HepG2 cells assessed as reduction in cell viability incubated for 48 hrs by CCK8 assay. The format is functional, cell-based. Conditions: HepG2, 48 h.
For data set [3], the system named is MCF7. Briefly: Antiproliferative activity against human MCF7 cells assessed as reduction in cell viability incubated for 48 hrs by CCK8 assay. The format is functional, cell-based. Conditions: MCF7, 48 h.
Data set [4] relates to SGC-7901. Briefly: Antiproliferative activity against human SGC-7901 cells assessed as reduction in cell viability incubated for 48 hrs by CCK8 assay. The format is functional, cell-based. Conditions: SGC-7901, 48 h. Background: Tetrazolium assays rely on reduction of a dye to a coloured formazan, in cell work by metabolically active cells.
Data set [5] can be described thus: Cytotoxicity against mouse RAW264.7 cells assessed as cell viability at 10 uM incubated for 48 hrs by CCK8 assay. The format is toxicity, cell-based. As to conditions: read-out: Activity.
Data set [6] is described as follows: Cytotoxicity against human L02 cells assessed as cell viability at 10 uM incubated for 48 hrs by CCK8 assay. As to conditions: read-out: Activity. The format is toxicity, cell-based.
Data set [7] concerns RAW264.7. Briefly: Antiinflammatory activity in mouse RAW264.7 assessed as inhibition of LPS-stimulated NO production pretreated with LPS followed by compund addition by Griess reagent based microplate reader assay. The format is functional, cell-based. As to conditions: for pIC50: Mus musculus, RAW264.7. A general note: Griess reagent forms a coloured azo dye with nitrite.

Data set [8] is described as follows: Cytotoxicity against mouse RAW264.7 cells assessed as reduction in cell viability incubated for 48 hrs by CCK8 assay. The format is toxicity, cell-based.
Data set [9] in a line: Cytotoxicity against human L02 cells assessed as reduction in cell viability incubated for 48 hrs by CCK8 assay. Type of data set: toxicity, cell-based.

One may read the pIC50 as the IC50 on a negative log10 scale, so that one unit is a factor of ten. With `C=C1C(=O)O[C@@H]2C[C@@]1(C)[C@@H]1C(=O)[C@@]3(O)O[C@]14[C@@]2(C)OC(=O)[C@@]4(O)CC[C@H]1[C@H]3CC=C2CC=CC(=O)[C@@]21C`, the pIC50 in data set [1] is 5.05; in data set [2] it was 4.88; in [3], 5.12; in [4], 5.55. Besides, the results for the viability at 48 h, 10 µM in [5] and in data set [6] were 90.7% and 94.2%, respectively. Besides, the “inhibition (INH)” value in data set [7] is given as under 50%.

For the compound `C[C@]12C(=O)C=CCC1=CC[C@@H]1[C@@H]2CC[C@]2(O)C(=O)O[C@@]3(C)[C@H]4C[C@@]5(C)[C@@H]6C(=O)[C@@]1(OC[C@@]5(O)C(=O)O4)O[C@@]632`, the pIC50 is 4.91 in data set [1], 4.77 in data set [2], 4.98 in [3] and 4.92 in data set [4]. Also, the viability at 48 h, 10 µM in data set [5] amounted to 95.5%; in data set [6], 97.3%.

In the case of `C=C1C(=O)O[C@@H]2C[C@@]1(C)[C@@H]1C(=O)[C@@]3(O)O[C@]14[C@@]2(C)OC(=O)[C@@]4(O)CC[C@H]1[C@H]3C[C@@H](O)[C@@]2(OC)CC=CC(=O)[C@]12C`, the pIC50 in data set [1] is 4.94; in [2], 4.85; in data set [3], 4.97; in data set [4] it was 5.11; in [7], 4.59. For the same compound, the viability at 48 h, 10 µM came out at 94.2% in data set [5] and 98.1% in data set [6].

On to `C=C1C(=O)O[C@@H]2C[C@@]1(C)[C@@H]1C(=O)[C@@]3(O)O[C@]14[C@@]2(C)OC(=O)[C@@]4(O)CC[C@H]1[C@H]3C[C@@H](O)C2=CC=CC(=O)[C@@]21C`, for which the pIC50 is 5.15 in data set [1], 5.08 in [2], 4.90 in data set [3] and 5.01 in [4]. In addition, the viability at 48 h, 10 µM was determined as 92.3% in [5] and 95.2% in [6]. The “inhibition (INH)” value in [7] is under 50%.

Regarding `C[C@@]12C[C@H]3OC(=O)[C@@H]1CO[C@@]14O[C@@]5([C@H]2C1=O)[C@@]3(C)OC(=O)[C@@]5(O)CC[C@H]1[C@H]4C[C@@H](O)[C@@]2(Cl)CC=CC(=O)[C@]12C`, the pIC50 is 4.66 in [1], 4.61 in [2], 4.90 in data set [3] and 4.90 in data set [4]. Further, the viability at 48 h, 10 µM in data set [5] came out at 98.3%; in data set [6] it was 95.3%. Also, the “inhibition (INH)” value in data set [7] is reported as under 50%.

For orientation: IC50 means the concentration that inhibits the measured activity by half. On to `CO[C@]12CC=CC(=O)[C@]1(C)[C@H]1CC[C@]3(O)C(=O)O[C@@]4(C)[C@H]5C[C@]6(C)[C@@H](CO[C@@]7(O[C@@]43[C@H]6C7=O)[C@@H]1C[C@H]2O)C(=O)O5`, for which the pIC50 in data set [1] is under 4.30; in [2], under 4.30; in data set [3] it was under 4.30; in data set [4], under 4.30; in data set [7], 4.12. The IC50 at 48 h in [8] and in data set [9] was over 50 µM in each case.

As to `C[C@@H]1C(=O)O[C@@H]2C[C@@]1(C)[C@@H]1C(=O)[C@@]3(O)O[C@]14[C@@]2(C)OC(=O)[C@@]4(O)CC[C@H]1[C@H]3C[C@@H](O)[C@@]2(O)CC=CC(=O)[C@]12C`, the pIC50 in data set [1] was under 4.30; in data set [2] it was under 4.30; in data set [3] it was under 4.30; in data set [4] it was under 4.30; in data set [7], 4.25. The IC50 at 48 h in [8] and in data set [9] was over 50 µM in each case.

Consider `COC(=O)C[C@@H](O)C(=O)O[C@]12CC=CC(=O)[C@]1(C)[C@H]1CC[C@]3(O)C(=O)O[C@@]4(C)[C@H]5C[C@]6(C)[C@@H](CO[C@]7(O[C@@]43[C@H]6C7=O)[C@@H]1C[C@H]2O)C(=O)O5`, for which the pIC50 was under 4.30 in data set [1]; under 4.30 in [2]; under 4.30 in data set [3]; under 4.30 in data set [4]; 4.49 in [7]. In addition, the IC50 at 48 h in data set [8] and in data set [9] was over 50 µM each time.

In the case of `C=C1C(=O)O[C@@H]2C[C@@]1(C)[C@@H]1C(=O)[C@@]3(O)O[C@]14[C@@]2(C)OC(=O)[C@@]4(O)CC[C@H]1[C@H]3C[C@@H](O)[C@@]2(O)CC=CC(=O)[C@]12C`, the pIC50 in [1] is 5.27; in data set [2], 5.01; in [3], 5.14; in data set [4], 4.91. The values for the viability at 48 h, 10 µM in data set [5] and in [6] were 93.5% and 97.5%, respectively. Besides, the “inhibition (INH)” value in data set [7] is under 50%.

Turning to `C[C@@]12C[C@H]3OC(=O)[C@@H]1CO[C@@]14O[C@]56[C@H]2[C@]1(O)[C@H](C[C@]5(O)C(=O)O[C@@]36C)[C@H]1[C@H]4CC(O)[C@]2(O)CC=CC(=O)[C@]12C` (some centres undefined), the pIC50 was under 4.30 in data set [1]; under 4.30 in data set [2]; under 4.30 in data set [3]; under 4.30 in data set [4]; 5.05 in data set [7]. Moreover, the IC50 at 48 h in data set [8] and in data set [9] was over 50 µM throughout.

For the compound `C[C@]12C(=O)C=CC=C1[C@@H](O)C[C@@H]1[C@@H]2CC[C@@]2(O)C(=O)O[C@@]3(C)[C@H]4C[C@]5(C)[C@@H](CO[C@@]16O[C@]23[C@H]5C6=O)C(=O)O4` [PHYSALIN G], the pIC50 was under 4.30 in data set [1]; under 4.30 in data set [2]; under 4.30 in data set [3]; under 4.30 in [4]; 4.87 in data set [7]. In addition, the IC50 at 48 h in data set [8] and in data set [9] was over 50 µM each time.

For `COC(=O)CCC(=O)O[C@]12CC=CC(=O)[C@]1(C)[C@H]1CC[C@]3(O)C(=O)O[C@@]4(C)[C@H]5C[C@]6(C)[C@@H](CO[C@]7(O[C@@]43[C@H]6C7=O)[C@@H]1C[C@H]2O)C(=O)O5`, the pIC50 in data set [1] was under 4.30; in data set [2], under 4.30; in [3] it was under 4.30; in data set [4], under 4.30; in data set [7], 5.51. For the same compound, the IC50 at 48 h in [8] and in [9] was over 50 µM throughout.

With `C[C@@]12C[C@H]3OC(=O)[C@@H]1CO[C@]14O[C@@]5([C@H]2C1=O)[C@@]3(C)OC(=O)[C@@]5(O)CC[C@H]1[C@H]4C[C@H]2O[C@]23CC=CC(=O)[C@]13C`, the pIC50 in [1] was under 4.30; in data set [2], under 4.30; in data set [3] it was under 4.30; in data set [4], under 4.30; in data set [7], 5.10. The IC50 at 48 h in data set [8] and in data set [9] was over 50 µM each time.

In the case of `C=C1C(=O)O[C@@H]2C[C@@]1(C)[C@@H]1C(=O)[C@@]3(O)O[C@]14[C@@]2(C)OC(=O)[C@@]4(O)CC[C@H]1[C@H]3[C@H](O)C=C2CC=CC(=O)[C@@]21C`, the pIC50 in [1] was under 4.30; in data set [2] it was under 4.30; in data set [3], under 4.30; in [4], under 4.30; in data set [7], 5.02. The IC50 at 48 h in data set [8] and in [9] was over 50 µM throughout.

Turning to `C[C@@]12C[C@H]3OC(=O)[C@]1(O)CO[C@@]14O[C@@]5([C@H]2C1=O)[C@@]3(C)OC(=O)[C@@]5(O)CC[C@H]1[C@H]4C[C@H](O)[C@]2(O)CC=CC(=O)[C@]12C`, the pIC50 in data set [1] is under 4.30; in [2] it was under 4.30; in [3] it was under 4.30; in data set [4] it was under 4.30; in data set [7], 4.83. The IC50 at 48 h in data set [8] and in [9] was over 50 µM each time.

`O=C(CCCCCCC(=O)Nc1ccccc1)NO` [VORINOSTAT]: the viability at 48 h, 10 µM in data set [5] turned out to be 87%; in [6], 92.5%.

On to `COC(=O)C[C@H](O)C(=O)O[C@]12CC=CC(=O)[C@]1(C)[C@H]1CC[C@]3(O)C(=O)O[C@@]4(C)[C@H]5C[C@]6(C)[C@@H](CO[C@]7(O[C@@]43[C@H]6C7=O)[C@@H]1C[C@H]2O)C(=O)O5`, for which the pIC50 was under 4.30 in [1]; under 4.30 in data set [2]; under 4.30 in data set [3]; under 4.30 in data set [4]; 4.55 in data set [7]. In addition, the IC50 at 48 h in [8] and in [9] was over 50 µM throughout.

As for `C[C@]12C(=O)CC=CC1=CC[C@@H]1[C@@H]2CC[C@]2(O)C(=O)O[C@@]3(C)[C@H]4C[C@@]5(C)[C@@H]6C(=O)[C@@]1(OC[C@@]5(O)C(=O)O4)O[C@@]632`, the pIC50 in [1] is under 4.30; in [2] it was under 4.30; in data set [3], under 4.30; in [4] it was under 4.30; in data set [7], 4.76. Besides, the IC50 at 48 h in data set [8] and in data set [9] was over 50 µM in each case.

With `C[C@]12C(=O)C=CC=C1[C@H](O)C[C@@H]1[C@@H]2CC[C@]2(O)C(=O)O[C@@]3(C)[C@H]4C[C@@]5(C)[C@@H]6C(=O)[C@@]1(OC[C@@]5(O)C(=O)O4)O[C@@]632`, the pIC50 in data set [1] was under 4.30; in [2], under 4.30; in data set [3], under 4.30; in data set [4] it was under 4.30; in [7], 5.19. Moreover, the IC50 at 48 h in data set [8] and in data set [9] was over 50 µM in each case.

Regarding `C[C@@]12C[C@H]3OC(=O)[C@@H]1CO[C@]14O[C@@]5([C@H]2C1=O)[C@@]3(C)OC(=O)[C@@]5(O)CC[C@H]1[C@H]4C[C@@H](O)[C@@]2(O)CC=CC(=O)[C@]12C`, the pIC50 in data set [1] was under 4.30; in data set [2] it was under 4.30; in data set [3] it was under 4.30; in [4], under 4.30; in data set [7], 4.30. Also, the IC50 at 48 h in [8] and in [9] was over 50 µM each time.
